Source: US20250368648A1, “MULTI-CYCLIC IRAK AND FLT3 INHIBITING COMPOUNDS AND USES THEREOF” (CHILDREN'S HOSPITAL MEDICAL CENTER, priority 2022, published 2025)

Tests used:
IRAK4 = biological target: T1, IRAK4 (Homo sapiens, UniProt Q9NWZ3); assay: RBC HotSpot Kinase Assay, IRAK4; format: biochemical; parameters: purchased RBC (Reaction Biology) HotSpot assay; settings: HotSpot functional assay, isolated kinase enzyme, 33P-ATP
T1 sequence (Q9NWZ3 1-460): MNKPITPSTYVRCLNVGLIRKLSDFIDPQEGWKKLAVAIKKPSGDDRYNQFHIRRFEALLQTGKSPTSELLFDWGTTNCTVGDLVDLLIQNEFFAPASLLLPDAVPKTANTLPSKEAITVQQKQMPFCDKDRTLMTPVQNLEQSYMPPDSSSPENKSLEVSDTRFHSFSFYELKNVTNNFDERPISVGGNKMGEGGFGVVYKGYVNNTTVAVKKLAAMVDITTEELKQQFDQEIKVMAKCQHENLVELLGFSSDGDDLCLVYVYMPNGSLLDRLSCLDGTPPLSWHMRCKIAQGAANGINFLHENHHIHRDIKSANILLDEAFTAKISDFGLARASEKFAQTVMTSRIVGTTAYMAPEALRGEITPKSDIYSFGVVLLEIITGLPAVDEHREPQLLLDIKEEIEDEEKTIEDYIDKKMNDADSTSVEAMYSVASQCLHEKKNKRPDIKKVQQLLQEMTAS
Outline: (§1)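 Isolated kinases, possibly truncated or lacking regulatory receptor regions, were preincubated with compound for 20 min at room temp in 20 mM Hepes pH 7.5, 10 mM MgCl2, 1 mM EGTA, 2 mM DTT, 1% DMSO. Reactions were started with ^33P-ATP and run 2 h at room temperature; activity was read by P81 filter binding.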

IRAK1 = biological target: T2, IRAK1 (Homo sapiens, UniProt P51617); assay: RBC HotSpot Kinase Assay, IRAK1; format: biochemical; settings: HotSpot functional assay, isolated kinase enzyme, 33P-ATP
T2 construct: purchased RBC (Reaction Biology) HotSpot assay
T2 sequence (P51617 whole entry): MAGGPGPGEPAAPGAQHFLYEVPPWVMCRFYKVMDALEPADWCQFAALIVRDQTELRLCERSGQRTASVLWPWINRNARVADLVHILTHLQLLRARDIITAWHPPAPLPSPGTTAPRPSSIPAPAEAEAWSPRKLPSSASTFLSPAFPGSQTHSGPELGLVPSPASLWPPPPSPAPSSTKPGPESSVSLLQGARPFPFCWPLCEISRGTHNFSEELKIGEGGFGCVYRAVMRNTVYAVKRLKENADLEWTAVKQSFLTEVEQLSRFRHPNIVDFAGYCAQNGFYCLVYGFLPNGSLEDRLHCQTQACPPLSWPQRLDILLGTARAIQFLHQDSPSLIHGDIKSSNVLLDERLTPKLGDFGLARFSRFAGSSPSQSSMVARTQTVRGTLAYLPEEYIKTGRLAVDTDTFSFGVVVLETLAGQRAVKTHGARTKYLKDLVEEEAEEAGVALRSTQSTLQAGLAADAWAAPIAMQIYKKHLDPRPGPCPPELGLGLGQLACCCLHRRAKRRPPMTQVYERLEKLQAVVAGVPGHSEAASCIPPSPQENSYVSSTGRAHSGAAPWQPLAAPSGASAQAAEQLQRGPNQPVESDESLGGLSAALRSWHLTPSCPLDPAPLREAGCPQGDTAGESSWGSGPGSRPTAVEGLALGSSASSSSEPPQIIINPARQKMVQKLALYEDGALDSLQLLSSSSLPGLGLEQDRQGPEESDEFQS
Outline: as §1

FLT3 = biological target: T3, FLT3 (Homo sapiens, UniProt P36888); assay: RBC HotSpot Kinase Assay, FLT3; format: biochemical; parameters: purchased RBC (Reaction Biology) HotSpot assay; settings: HotSpot functional assay, isolated kinase enzyme, 33P-ATP
T3 sequence (P36888 27-993): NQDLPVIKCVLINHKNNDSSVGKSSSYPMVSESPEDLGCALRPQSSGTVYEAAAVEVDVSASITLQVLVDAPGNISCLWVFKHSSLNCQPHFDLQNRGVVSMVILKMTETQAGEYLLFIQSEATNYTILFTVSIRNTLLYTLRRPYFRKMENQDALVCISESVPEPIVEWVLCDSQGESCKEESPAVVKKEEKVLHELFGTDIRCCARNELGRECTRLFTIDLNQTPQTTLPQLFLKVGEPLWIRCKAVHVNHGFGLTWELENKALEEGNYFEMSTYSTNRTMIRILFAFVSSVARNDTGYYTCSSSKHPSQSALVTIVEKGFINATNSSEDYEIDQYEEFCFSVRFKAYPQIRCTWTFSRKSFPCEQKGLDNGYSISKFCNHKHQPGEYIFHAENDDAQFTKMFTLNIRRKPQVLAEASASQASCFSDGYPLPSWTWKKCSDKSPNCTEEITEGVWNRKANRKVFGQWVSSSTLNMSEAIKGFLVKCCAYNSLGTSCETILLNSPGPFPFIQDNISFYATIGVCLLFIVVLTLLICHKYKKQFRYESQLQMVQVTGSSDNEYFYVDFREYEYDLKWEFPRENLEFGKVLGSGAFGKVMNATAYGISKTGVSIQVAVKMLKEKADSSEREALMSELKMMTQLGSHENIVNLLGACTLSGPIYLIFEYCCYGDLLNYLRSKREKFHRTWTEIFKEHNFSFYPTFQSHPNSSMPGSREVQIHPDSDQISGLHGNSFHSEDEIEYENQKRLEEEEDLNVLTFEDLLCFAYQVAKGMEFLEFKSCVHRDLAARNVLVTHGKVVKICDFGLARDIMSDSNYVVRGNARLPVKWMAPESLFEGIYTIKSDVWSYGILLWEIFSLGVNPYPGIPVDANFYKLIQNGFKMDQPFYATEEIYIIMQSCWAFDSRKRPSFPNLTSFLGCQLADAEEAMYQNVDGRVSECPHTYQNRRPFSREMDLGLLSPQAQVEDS
Outline: as §1

MOLM14 D835Y cells = assay: MOLM14 D835Y cell viability assay (Cell Titer Glo); format: cell-based; settings: Homo sapiens, MOLM-14, 48 h
Protocol: The cell line has activated FLT3 receptors which carry additional resistance mutations in the kinase domain (D835Y).
MOLM14 D835Y cells were grown in RPMI-1640 media supplemented with 20% fetal bovine serum (FBS). […] After cell addition, 23 nL of test compound were transferred into individual wells (22 doses tested for each test compound, with a 1:2 dilution series starting at 10 μM) via a 1536 pin-tool. Bortezomib (final concentration 2.3 μM) was used as a positive control for cell cytotoxicity.

In the case of `COc1cc2ncc(-c3nc(N[C@H]4CNCC[C@@H]4F)ccc3F)n2nc1C(C)(C)O` [Compound 4a, 2-(3-(3-fluoro-6-(((3S,4S)-4-fluoropiperidin-3-yl)amino)pyridin-2-yl)-7-methoxyimidazo[1,2-b]pyridazin-6-yl)propan-2-ol], the IC50 (IRAK4) is reported as 0.027 µM, the IC50 (IRAK1) is reported as 0.221 µM and the IC50 (FLT3) is reported as less than 0.0005 µM. The IC50 (MOLM14 D835Y cells) was 0.029 µM.

`COc1cc2ncc(-c3ccc(F)c(N[C@H]4CNC[C@@H]4F)n3)n2nc1C(C)(C)O` [Compound 5a, 2-(3-(5-fluoro-6-(((3S,4S)-4-fluoropyrrolidin-3-yl)amino)pyridin-2-yl)-7-methoxyimidazo[1,2-b]pyridazin-6-yl)propan-2-ol] gave an IC50 (IRAK4) of 0.07 µM, an IC50 (IRAK1) of 2.67 µM and an IC50 (FLT3) of 0.007 µM. The IC50 (MOLM14 D835Y cells) was 0.408 µM.

With `COc1cc2ncc(-c3ccc(F)c(N[C@@H]4CCCNC4)n3)n2nc1C(C)(C)O` [Compound 6a, (R)-2-(3-(5-fluoro-6-(piperidin-3-ylamino)pyridin-2-yl)-7-methoxyimidazo[1,2-b]pyridazin-6-yl)propan-2-ol] the IC50 (IRAK4) was 0.558 µM, the IC50 (IRAK1) was 2.85 µM and the IC50 (FLT3) was 0.009 µM. It also gave an IC50 (MOLM14 D835Y cells) of 0.289 µM.

Work on `COc1cc2ncc(-c3nc(N[C@H]4CNC[C@@H]4F)c(F)cc3F)n2nc1C1CCC1` [Compound 13a, 6-(6-cyclobutyl-7-methoxyimidazo[1,2-b]pyridazin-3-yl)-3,5-difluoro-N-((3S,4S)-4-fluoropyrrolidin-3-yl)pyridin-2-amine] yielded an IC50 (IRAK4) of 0.001 µM, an IC50 (IRAK1) of 0.006 µM and an IC50 (FLT3) of less than 0.0005 µM. The IC50 (MOLM14 D835Y cells) was 0.058 µM.

Compound `COc1cc2ncc(-c3nc(N[C@@H]4CCCNC4)c(F)cc3F)n2nc1C1CCC1` [Compound 14a, (R)-6-(6-cyclobutyl-7-methoxyimidazo[1,2-b]pyridazin-3-yl)-3,5-difluoro-N-(piperidin-3-yl)pyridin-2-amine] has an IC50 (IRAK4) of 0.004 µM, an IC50 (IRAK1) of 0.012 µM and an IC50 (FLT3) of less than 0.0005 µM. It also gave an IC50 (MOLM14 D835Y cells) of 0.015 µM.

`COc1cc2ncc(-c3cccc(N[C@H]4CNC[C@@H]4F)n3)n2nc1N1CCCC1=O` [Compound 25a, 1-(3-(6-(((3S,4S)-4-fluoropyrrolidin-3-yl)amino)pyridin-2-yl)-7-methoxyimidazo[1,2-b]pyridazin-6-yl)pyrrolidin-2-one] showed an IC50 (IRAK4) of 0.336 µM, an IC50 (IRAK1) of 0.283 µM and an IC50 (FLT3) of 0.001 µM. For the same compound, the IC50 (MOLM14 D835Y cells) was 1.02 µM.

With `COc1cc2ncc(-c3cccc(N[C@H]4CNCC[C@@H]4F)n3)n2nc1N1CCCC1=O` [Compound 26a, 1-(3-(6-(((3S,4S)-4-fluoropiperidin-3-yl)amino)pyridin-2-yl)-7-methoxyimidazo[1,2-b]pyridazin-6-yl)pyrrolidin-2-one] the IC50 (IRAK4) was 0.237 µM, the IC50 (IRAK1) was 0.29 µM and the IC50 (FLT3) was 0.0009 µM. For the same compound, the IC50 (MOLM14 D835Y cells) was 0.257 µM.

In the case of `COc1cc2ncc(-c3ccc(C)c(N[C@H]4CNCC[C@@H]4F)n3)n2nc1C1CC1` [Compound 38a, 6-(6-cyclopropyl-7-methoxyimidazo[1,2-b]pyridazin-3-yl)-N-((3S,4S)-4-fluoropiperidin-3-yl)-3-methylpyridin-2-amine], the IC50 (IRAK4) is reported as 7.08 µM, the IC50 (IRAK1) is reported as greater than 10 µM and the IC50 (FLT3) is reported as 0.05 µM. It also gave an IC50 (MOLM14 D835Y cells) of 2.89 µM.

`COc1cc2ncc(-c3nc(N[C@H]4CNCC[C@@H]4F)ccc3C)n2nc1C1CC1` [Compound 39a, 6-(6-cyclopropyl-7-methoxyimidazo[1,2-b]pyridazin-3-yl)-N-((3S,4S)-4-fluoropiperidin-3-yl)-5-methylpyridin-2-amine] showed an IC50 (IRAK4) of 0.045 µM, an IC50 (IRAK1) of 3.36 µM and an IC50 (FLT3) of less than 0.0005 µM. For the same compound, the IC50 (MOLM14 D835Y cells) was 0.129 µM.

`COc1cc2ncc(-c3nc(N[C@@H]4CCCNC4)ccc3C)n2nc1C1CC1` [Compound 40a, (R)-6-(6-cyclopropyl-7-methoxyimidazo[1,2-b]pyridazin-3-yl)-5-methyl-N-(piperidin-3-yl)pyridin-2-amine] was tested, and the IC50 (IRAK4) was 0.018 µM, the IC50 (IRAK1) was greater than 10 µM and the IC50 (FLT3) was less than 0.0005 µM. The IC50 (MOLM14 D835Y cells) was 0.129 µM.

Work on `COc1cc2ncc(-c3ccc(C)c(N[C@@H]4CCCNC4)n3)n2nc1C1CC1` [Compound 41a, (R)-6-(6-cyclopropyl-7-methoxyimidazo[1,2-b]pyridazin-3-yl)-3-methyl-N-(piperidin-3-yl)pyridin-2-amine] yielded an IC50 (IRAK4) greater than 10 µM, an IC50 (IRAK1) greater than 10 µM and an IC50 (FLT3) of 0.105 µM. The IC50 (MOLM14 D835Y cells) was 1.62 µM.
